{
  "source": "ChEMBL document CHEMBL4507273",
  "about": "(2021)",
  "key": {"[1]": {"biological_target": "Myosin light chain kinase, smooth muscle (Homo sapiens) (UniProt Q15746)", "settings": "Compound concentration 1000.0 nM"}, "[2]": {"biological_target": "Mitogen-activated protein kinase kinase kinase kinase 1 (Homo sapiens) (UniProt Q92918)", "sequence (Q92918 whole entry, looked up)": "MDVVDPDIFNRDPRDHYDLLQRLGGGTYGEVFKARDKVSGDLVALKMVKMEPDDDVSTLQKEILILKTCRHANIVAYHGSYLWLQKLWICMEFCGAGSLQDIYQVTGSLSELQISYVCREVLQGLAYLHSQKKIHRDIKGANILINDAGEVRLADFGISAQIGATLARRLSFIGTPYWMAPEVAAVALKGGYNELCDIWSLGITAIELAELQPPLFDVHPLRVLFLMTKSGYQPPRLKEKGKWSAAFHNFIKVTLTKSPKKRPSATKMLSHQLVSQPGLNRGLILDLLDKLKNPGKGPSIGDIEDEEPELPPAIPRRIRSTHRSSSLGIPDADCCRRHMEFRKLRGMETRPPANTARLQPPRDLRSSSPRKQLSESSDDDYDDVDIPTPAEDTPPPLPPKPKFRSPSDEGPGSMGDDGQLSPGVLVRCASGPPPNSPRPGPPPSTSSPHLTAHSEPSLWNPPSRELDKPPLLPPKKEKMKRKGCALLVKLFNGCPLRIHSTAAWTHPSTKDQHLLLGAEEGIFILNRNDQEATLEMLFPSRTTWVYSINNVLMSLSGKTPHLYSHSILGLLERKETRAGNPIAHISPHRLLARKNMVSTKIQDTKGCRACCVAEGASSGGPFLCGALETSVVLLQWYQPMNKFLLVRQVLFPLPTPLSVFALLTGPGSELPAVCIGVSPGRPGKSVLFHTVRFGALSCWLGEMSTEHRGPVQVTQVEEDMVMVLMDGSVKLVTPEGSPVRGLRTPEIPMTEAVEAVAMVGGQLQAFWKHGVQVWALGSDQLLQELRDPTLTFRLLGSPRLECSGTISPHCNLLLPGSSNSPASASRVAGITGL", "settings": "Compound concentration 1000.0 nM"}, "[3]": {"biological_target": "Serine/threonine-protein kinase SIK1 (Homo sapiens) (UniProt P57059)", "settings": "Compound concentration 1000.0 nM"}, "[4]": {"biological_target": "Serine/threonine-protein kinase PAK 1 (Homo sapiens) (UniProt Q13153)", "sequence (Q13153 whole entry)": "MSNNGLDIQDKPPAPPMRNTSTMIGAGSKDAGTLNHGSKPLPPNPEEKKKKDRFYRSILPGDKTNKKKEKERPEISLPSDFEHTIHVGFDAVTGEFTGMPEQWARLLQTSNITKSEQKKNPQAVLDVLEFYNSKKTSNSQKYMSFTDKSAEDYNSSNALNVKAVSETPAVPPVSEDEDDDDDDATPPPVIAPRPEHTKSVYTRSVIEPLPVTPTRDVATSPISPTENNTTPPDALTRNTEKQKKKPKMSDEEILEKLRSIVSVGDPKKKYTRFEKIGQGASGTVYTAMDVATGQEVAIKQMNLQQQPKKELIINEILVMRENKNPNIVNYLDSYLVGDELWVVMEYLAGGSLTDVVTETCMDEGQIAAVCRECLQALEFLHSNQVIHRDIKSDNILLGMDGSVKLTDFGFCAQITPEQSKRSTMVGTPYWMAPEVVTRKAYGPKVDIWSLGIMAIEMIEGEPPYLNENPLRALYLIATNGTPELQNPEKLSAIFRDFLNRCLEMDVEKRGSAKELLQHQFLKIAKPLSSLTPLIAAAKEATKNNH", "settings": "Compound concentration 1000.0 nM"}, "[5]": {"test_system": "Receptor-type tyrosine-protein kinase FLT3 (Homo sapiens), P36888 [UNDEFINED MUTATION]", "sequence (P36888 whole entry, looked up, change not shown)": "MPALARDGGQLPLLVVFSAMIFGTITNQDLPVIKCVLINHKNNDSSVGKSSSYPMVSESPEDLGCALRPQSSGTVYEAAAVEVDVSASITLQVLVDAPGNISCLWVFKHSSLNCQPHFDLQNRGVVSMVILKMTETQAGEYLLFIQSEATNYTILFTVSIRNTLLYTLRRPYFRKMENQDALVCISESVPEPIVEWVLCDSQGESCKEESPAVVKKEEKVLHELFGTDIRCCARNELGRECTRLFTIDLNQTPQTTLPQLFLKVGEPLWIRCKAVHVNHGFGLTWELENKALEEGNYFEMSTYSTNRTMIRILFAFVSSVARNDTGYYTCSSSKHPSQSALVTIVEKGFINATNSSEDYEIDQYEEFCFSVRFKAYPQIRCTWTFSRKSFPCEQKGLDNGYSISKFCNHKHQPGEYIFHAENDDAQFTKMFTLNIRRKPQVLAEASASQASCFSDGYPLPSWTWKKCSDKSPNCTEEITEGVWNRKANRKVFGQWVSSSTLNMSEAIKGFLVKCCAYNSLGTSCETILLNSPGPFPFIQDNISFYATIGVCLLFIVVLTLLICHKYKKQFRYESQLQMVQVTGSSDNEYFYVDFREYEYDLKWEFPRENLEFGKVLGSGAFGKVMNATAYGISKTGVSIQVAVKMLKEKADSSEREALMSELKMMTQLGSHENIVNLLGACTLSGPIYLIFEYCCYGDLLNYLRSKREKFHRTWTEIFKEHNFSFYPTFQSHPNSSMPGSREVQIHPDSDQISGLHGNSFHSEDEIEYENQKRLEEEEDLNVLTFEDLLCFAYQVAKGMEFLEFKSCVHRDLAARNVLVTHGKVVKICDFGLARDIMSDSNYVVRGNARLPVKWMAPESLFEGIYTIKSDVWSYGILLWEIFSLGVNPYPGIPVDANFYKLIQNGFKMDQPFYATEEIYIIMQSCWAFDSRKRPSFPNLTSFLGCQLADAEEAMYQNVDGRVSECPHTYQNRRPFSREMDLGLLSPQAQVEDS", "settings": "Compound concentration 1000.0 nM"}, "[6]": {"biological_target": "Ephrin type-A receptor 8 (Homo sapiens) (UniProt P29322)", "settings": "Compound concentration 1000.0 nM"}, "[7]": {"biological_target": "Calcium/calmodulin-dependent protein kinase type II subunit beta (Homo sapiens) (UniProt Q13554)", "settings": "Compound concentration 1000.0 nM"}, "[8]": {"biological_target": "Tyrosine-protein kinase FRK (Homo sapiens) (UniProt P42685)", "sequence (P42685 whole entry)": "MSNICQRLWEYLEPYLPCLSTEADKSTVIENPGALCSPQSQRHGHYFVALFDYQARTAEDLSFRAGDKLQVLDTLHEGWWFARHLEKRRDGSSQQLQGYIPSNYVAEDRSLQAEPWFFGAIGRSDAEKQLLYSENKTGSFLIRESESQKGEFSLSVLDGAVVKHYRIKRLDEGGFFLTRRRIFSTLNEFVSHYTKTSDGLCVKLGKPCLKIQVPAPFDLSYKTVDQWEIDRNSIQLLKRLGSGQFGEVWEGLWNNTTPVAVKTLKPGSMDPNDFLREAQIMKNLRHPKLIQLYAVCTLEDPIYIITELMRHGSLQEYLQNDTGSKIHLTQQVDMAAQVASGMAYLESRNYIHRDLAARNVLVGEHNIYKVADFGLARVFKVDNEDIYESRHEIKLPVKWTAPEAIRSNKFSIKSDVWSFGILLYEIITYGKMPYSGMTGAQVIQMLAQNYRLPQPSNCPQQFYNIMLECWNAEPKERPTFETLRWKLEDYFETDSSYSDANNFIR", "settings": "Compound concentration 1000.0 nM"}, "[9]": {"biological_target": "Serine/threonine-protein kinase PAK 2 (Homo sapiens) (UniProt Q13177)", "settings": "Compound concentration 1000.0 nM"}, "[10]": {"test_system": "Tyrosine-protein kinase ABL1 (Homo sapiens), P00519 [Q252H]", "settings": "Compound concentration 1000.0 nM"}, "[11]": {"biological_target": "Mitogen-activated protein kinase 3 (Homo sapiens) (UniProt P27361)", "sequence (P27361 whole entry)": "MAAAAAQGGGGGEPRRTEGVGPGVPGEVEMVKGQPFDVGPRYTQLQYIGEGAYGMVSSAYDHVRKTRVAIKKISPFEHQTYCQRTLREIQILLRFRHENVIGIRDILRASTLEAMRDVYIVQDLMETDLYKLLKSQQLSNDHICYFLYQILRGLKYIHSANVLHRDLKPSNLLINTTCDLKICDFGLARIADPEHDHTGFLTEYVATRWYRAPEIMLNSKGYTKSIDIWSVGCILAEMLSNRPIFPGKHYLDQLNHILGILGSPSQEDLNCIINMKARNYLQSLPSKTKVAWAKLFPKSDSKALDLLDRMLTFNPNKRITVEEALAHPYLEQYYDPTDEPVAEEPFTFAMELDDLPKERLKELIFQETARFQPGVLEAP", "settings": "Compound concentration 1000.0 nM"}, "[12]": {"biological_target": "Dual specificity tyrosine-phosphorylation-regulated kinase 1B (Homo sapiens) (UniProt Q9Y463)", "settings": "Compound concentration 1000.0 nM"}, "[13]": {"test_system": "Tyrosine-protein kinase ABL1 (Homo sapiens), P00519 [F317L]", "settings": "Compound concentration 1000.0 nM"}, "[14]": {"biological_target": "Tyrosine-protein kinase ITK/TSK (Homo sapiens) (UniProt Q08881)", "settings": "Compound concentration 1000.0 nM"}, "[15]": {"test_system": "Tyrosine-protein kinase ABL1 (Homo sapiens), P00519 [E255K]", "settings": "Compound concentration 1000.0 nM"}, "[16]": {"biological_target": "T1, Alpha-1A adrenergic receptor (Homo sapiens) (UniProt P35348)", "T1 sequence (whole entry)": "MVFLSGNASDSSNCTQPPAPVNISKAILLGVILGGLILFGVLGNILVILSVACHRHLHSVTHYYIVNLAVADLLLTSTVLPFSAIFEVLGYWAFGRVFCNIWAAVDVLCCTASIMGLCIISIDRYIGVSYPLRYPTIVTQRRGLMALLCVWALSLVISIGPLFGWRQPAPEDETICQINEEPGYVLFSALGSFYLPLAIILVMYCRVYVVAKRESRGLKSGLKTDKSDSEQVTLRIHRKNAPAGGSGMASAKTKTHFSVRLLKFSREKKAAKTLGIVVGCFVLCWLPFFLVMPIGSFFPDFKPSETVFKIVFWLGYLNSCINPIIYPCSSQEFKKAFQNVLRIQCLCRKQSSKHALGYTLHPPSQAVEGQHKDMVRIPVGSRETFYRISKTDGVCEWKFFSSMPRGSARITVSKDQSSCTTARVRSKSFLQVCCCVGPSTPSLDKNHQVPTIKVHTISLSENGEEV", "settings": "Compound concentration 10.0 uM"}, "[17]": {"biological_target": "Serine/threonine-protein kinase 17B (Homo sapiens) (UniProt O94768)", "settings": "Compound concentration 1000.0 nM"}, "[18]": {"biological_target": "Serine/threonine-protein kinase RIO3 (Homo sapiens) (UniProt O14730)", "settings": "Compound concentration 1000.0 nM"}, "[19]": {"test_system": "Epidermal growth factor receptor (Homo sapiens), P00533 [UNDEFINED MUTATION]", "settings": "Compound concentration 1000.0 nM"}, "[20]": {"biological_target": "T2, Alpha-2C adrenergic receptor (Homo sapiens) (UniProt P18825)", "T2 sequence (whole entry)": "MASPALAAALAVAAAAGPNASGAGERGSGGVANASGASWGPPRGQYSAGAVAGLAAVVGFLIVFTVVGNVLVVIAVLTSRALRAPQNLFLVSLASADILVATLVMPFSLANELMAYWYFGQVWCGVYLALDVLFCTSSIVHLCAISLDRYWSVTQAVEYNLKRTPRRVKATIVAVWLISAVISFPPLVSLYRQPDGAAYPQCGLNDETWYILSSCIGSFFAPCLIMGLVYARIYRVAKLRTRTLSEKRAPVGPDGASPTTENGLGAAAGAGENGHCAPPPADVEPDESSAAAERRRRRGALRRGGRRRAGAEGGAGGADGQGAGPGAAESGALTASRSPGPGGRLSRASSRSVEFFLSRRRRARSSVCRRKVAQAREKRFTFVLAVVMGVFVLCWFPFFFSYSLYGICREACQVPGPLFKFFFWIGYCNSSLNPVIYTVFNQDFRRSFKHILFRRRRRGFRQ", "settings": "Compound concentration 10.0 uM"}, "[21]": {"biological_target": "Casein kinase I isoform alpha (Homo sapiens) (UniProt P48729)", "sequence (P48729 2-337 limits assumed)": "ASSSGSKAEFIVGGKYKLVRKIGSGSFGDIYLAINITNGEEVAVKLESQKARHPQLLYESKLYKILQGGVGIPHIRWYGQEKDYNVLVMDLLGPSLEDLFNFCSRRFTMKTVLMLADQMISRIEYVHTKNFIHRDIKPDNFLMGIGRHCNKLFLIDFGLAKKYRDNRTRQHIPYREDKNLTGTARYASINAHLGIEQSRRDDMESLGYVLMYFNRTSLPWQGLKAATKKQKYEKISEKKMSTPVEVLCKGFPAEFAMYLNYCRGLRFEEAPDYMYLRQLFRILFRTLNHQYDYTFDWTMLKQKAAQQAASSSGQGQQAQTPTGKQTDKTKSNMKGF", "settings": "Compound concentration 1000.0 nM"}, "[22]": {"biological_target": "Serine/threonine-protein kinase Nek2 (Homo sapiens) (UniProt P51955)", "settings": "Compound concentration 1000.0 nM"}, "[23]": {"biological_target": "Serine/threonine-protein kinase TAO3 (Homo sapiens) (UniProt Q9H2K8)", "sequence (Q9H2K8 whole entry)": "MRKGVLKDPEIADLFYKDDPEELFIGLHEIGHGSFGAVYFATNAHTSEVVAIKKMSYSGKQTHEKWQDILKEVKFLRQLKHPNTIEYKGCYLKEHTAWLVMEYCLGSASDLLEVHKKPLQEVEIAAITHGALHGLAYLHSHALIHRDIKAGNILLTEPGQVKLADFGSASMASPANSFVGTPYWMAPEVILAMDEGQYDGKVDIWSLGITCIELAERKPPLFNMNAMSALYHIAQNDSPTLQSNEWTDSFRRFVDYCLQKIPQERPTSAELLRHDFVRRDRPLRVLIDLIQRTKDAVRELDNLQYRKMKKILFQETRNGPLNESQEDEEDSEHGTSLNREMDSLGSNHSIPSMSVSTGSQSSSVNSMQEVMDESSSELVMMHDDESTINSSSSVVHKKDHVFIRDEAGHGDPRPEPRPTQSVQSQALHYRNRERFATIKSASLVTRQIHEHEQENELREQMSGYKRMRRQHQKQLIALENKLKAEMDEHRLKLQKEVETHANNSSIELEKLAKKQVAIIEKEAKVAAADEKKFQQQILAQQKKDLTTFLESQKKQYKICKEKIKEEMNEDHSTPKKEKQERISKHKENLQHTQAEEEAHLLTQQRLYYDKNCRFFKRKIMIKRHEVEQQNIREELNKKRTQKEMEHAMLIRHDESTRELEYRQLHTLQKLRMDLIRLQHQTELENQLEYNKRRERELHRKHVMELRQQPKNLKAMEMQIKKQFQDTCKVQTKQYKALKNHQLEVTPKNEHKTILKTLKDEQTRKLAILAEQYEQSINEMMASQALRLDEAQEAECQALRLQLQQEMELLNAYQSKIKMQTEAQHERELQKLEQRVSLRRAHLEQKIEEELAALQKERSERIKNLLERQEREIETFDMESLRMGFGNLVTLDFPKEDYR", "settings": "Compound concentration 1000.0 nM"}, "[24]": {"biological_target": "Muscarinic acetylcholine receptor M2 (Homo sapiens) (UniProt P08172)", "settings": "Compound concentration 10.0 uM"}, "[25]": {"biological_target": "Dual specificity tyrosine-phosphorylation-regulated kinase 2 (Homo sapiens) (UniProt Q92630)", "settings": "Compound concentration 1000.0 nM"}, "[26]": {"biological_target": "Dual specificity mitogen-activated protein kinase kinase 7 (Homo sapiens) (UniProt O14733)", "sequence (O14733 whole entry)": "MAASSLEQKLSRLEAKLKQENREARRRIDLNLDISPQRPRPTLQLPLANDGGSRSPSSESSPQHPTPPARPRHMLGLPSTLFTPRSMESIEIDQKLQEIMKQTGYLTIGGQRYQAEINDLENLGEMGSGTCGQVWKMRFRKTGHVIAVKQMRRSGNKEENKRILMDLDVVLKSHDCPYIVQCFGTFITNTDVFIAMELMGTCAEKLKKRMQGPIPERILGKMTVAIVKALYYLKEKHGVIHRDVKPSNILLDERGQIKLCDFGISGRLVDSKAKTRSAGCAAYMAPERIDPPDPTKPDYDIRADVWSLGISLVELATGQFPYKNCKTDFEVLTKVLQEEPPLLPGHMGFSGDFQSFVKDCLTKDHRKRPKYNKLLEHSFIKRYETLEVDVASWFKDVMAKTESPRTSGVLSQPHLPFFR", "settings": "Compound concentration 1000.0 nM"}, "[27]": {"biological_target": "Serine/threonine-protein kinase 36 (Homo sapiens) (UniProt Q9NRP7)", "settings": "Compound concentration 1000.0 nM"}, "[28]": {"biological_target": "Mitogen-activated protein kinase kinase kinase 15 (Homo sapiens) (UniProt Q6ZN16)", "settings": "Compound concentration 1000.0 nM"}, "[29]": {"biological_target": "MAP/microtubule affinity-regulating kinase 4 (Homo sapiens) (UniProt Q96L34)", "settings": "Compound concentration 1000.0 nM"}, "[30]": {"biological_target": "Non-receptor tyrosine-protein kinase TYK2 (Homo sapiens) (UniProt P29597)", "settings": "Compound concentration 1000.0 nM"}, "[31]": {"biological_target": "Serine/threonine-protein kinase mTOR (Homo sapiens) (UniProt P42345)", "settings": "Compound concentration 1000.0 nM"}, "[32]": {"test_system": "Tyrosine-protein kinase ABL1 (Homo sapiens), P00519 [T315I]", "settings": "Compound concentration 1000.0 nM"}},
  "data": [
    {"smiles": "CNCc1ccccc1-c1csc([C@H](C)Nc2nc(C)nc3cc(OC)c(OC)cc23)c1", "note": "[BAY-294]", "values": [
      {"measurement": "residual activity", "setting": "[1]", "value": 94, "unit": "%"},
      {"measurement": "residual activity", "setting": "[2]", "value": 100, "unit": "%"},
      {"measurement": "residual activity", "setting": "[3]", "value": 100, "unit": "%"},
      {"measurement": "residual activity", "setting": "[4]", "value": 99, "unit": "%"},
      {"measurement": "residual activity", "setting": "[5]", "value": 99, "unit": "%"},
      {"measurement": "residual activity", "setting": "[6]", "value": 100, "unit": "%"},
      {"measurement": "residual activity", "setting": "[7]", "value": 100, "unit": "%"},
      {"measurement": "residual activity", "setting": "[8]", "value": 100, "unit": "%"},
      {"measurement": "residual activity", "setting": "[9]", "value": 97, "unit": "%"},
      {"measurement": "residual activity", "setting": "[10]", "value": 76, "unit": "%"},
      {"measurement": "residual activity", "setting": "[11]", "value": 100, "unit": "%"},
      {"measurement": "residual activity", "setting": "[12]", "value": 55, "unit": "%"},
      {"measurement": "residual activity", "setting": "[13]", "value": 97, "unit": "%"},
      {"measurement": "residual activity", "setting": "[14]", "value": 100, "unit": "%"},
      {"measurement": "residual activity", "setting": "[15]", "value": 81, "unit": "%"},
      {"measurement": "inhibition", "setting": "[16]", "value": 83.4, "unit": "%"},
      {"measurement": "residual activity", "setting": "[17]", "value": 100, "unit": "%"},
      {"measurement": "residual activity", "setting": "[18]", "value": 100, "unit": "%"},
      {"measurement": "residual activity", "setting": "[19]", "value": 98, "unit": "%"},
      {"measurement": "inhibition", "setting": "[20]", "value": 94.2, "unit": "%"},
      {"measurement": "residual activity", "setting": "[21]", "value": 74, "unit": "%"},
      {"measurement": "residual activity", "setting": "[22]", "value": 92, "unit": "%"},
      {"measurement": "residual activity", "setting": "[23]", "value": 75, "unit": "%"},
      {"measurement": "inhibition", "setting": "[24]", "value": 65.4, "unit": "%"},
      {"measurement": "residual activity", "setting": "[25]", "value": 96, "unit": "%"},
      {"measurement": "residual activity", "setting": "[26]", "value": 81, "unit": "%"},
      {"measurement": "residual activity", "setting": "[27]", "value": 100, "unit": "%"},
      {"measurement": "residual activity", "setting": "[28]", "value": 77, "unit": "%"},
      {"measurement": "residual activity", "setting": "[29]", "value": 100, "unit": "%"},
      {"measurement": "residual activity", "setting": "[30]", "value": 76, "unit": "%"},
      {"measurement": "residual activity", "setting": "[31]", "value": 100, "unit": "%"},
      {"measurement": "residual activity", "setting": "[32]", "value": 95, "unit": "%"}
    ]},
    {"smiles": "CNCc1ccccc1-c1csc([C@@H](C)Nc2nc(C)nc3cc(OC)c(OC)cc23)c1", "note": "[BAY-293]", "values": [
      {"measurement": "residual activity", "setting": "[1]", "value": 84, "unit": "%"},
      {"measurement": "residual activity", "setting": "[2]", "value": 83, "unit": "%"},
      {"measurement": "residual activity", "setting": "[3]", "value": 91, "unit": "%"},
      {"measurement": "residual activity", "setting": "[4]", "value": 97, "unit": "%"},
      {"measurement": "residual activity", "setting": "[5]", "value": 89, "unit": "%"},
      {"measurement": "residual activity", "setting": "[6]", "value": 100, "unit": "%"},
      {"measurement": "residual activity", "setting": "[7]", "value": 92, "unit": "%"},
      {"measurement": "residual activity", "setting": "[8]", "value": 100, "unit": "%"},
      {"measurement": "residual activity", "setting": "[9]", "value": 88, "unit": "%"},
      {"measurement": "residual activity", "setting": "[10]", "value": 69, "unit": "%"},
      {"measurement": "residual activity", "setting": "[11]", "value": 94, "unit": "%"},
      {"measurement": "residual activity", "setting": "[12]", "value": 64, "unit": "%"},
      {"measurement": "residual activity", "setting": "[13]", "value": 86, "unit": "%"},
      {"measurement": "residual activity", "setting": "[14]", "value": 100, "unit": "%"},
      {"measurement": "residual activity", "setting": "[15]", "value": 75, "unit": "%"},
      {"measurement": "inhibition", "setting": "[16]", "value": 71.6, "unit": "%"},
      {"measurement": "residual activity", "setting": "[17]", "value": 92, "unit": "%"},
      {"measurement": "residual activity", "setting": "[18]", "value": 94, "unit": "%"},
      {"measurement": "residual activity", "setting": "[19]", "value": 82, "unit": "%"},
      {"measurement": "inhibition", "setting": "[20]", "value": 94.2, "unit": "%"},
      {"measurement": "residual activity", "setting": "[21]", "value": 73, "unit": "%"},
      {"measurement": "residual activity", "setting": "[22]", "value": 92, "unit": "%"},
      {"measurement": "residual activity", "setting": "[23]", "value": 83, "unit": "%"},
      {"measurement": "inhibition", "setting": "[24]", "value": 74.2, "unit": "%"},
      {"measurement": "residual activity", "setting": "[25]", "value": 92, "unit": "%"},
      {"measurement": "residual activity", "setting": "[26]", "value": 79, "unit": "%"},
      {"measurement": "residual activity", "setting": "[27]", "value": 100, "unit": "%"},
      {"measurement": "residual activity", "setting": "[28]", "value": 60, "unit": "%"},
      {"measurement": "residual activity", "setting": "[29]", "value": 100, "unit": "%"},
      {"measurement": "residual activity", "setting": "[30]", "value": 71, "unit": "%"},
      {"measurement": "residual activity", "setting": "[31]", "value": 100, "unit": "%"},
      {"measurement": "residual activity", "setting": "[32]", "value": 100, "unit": "%"}
    ]}
  ]
}
